Measured values taken from patent US20210268070A1, “Use of Immunomodulators to Control Infection and Stimulate Healing in Normal and Diabetic Wounds” (priority 2018, published 2021).

What was measured:
USA300 MRSA = experiment: Implant model of infection with USA300 MRSA; assay type: in vivo; settings: C57B mice, 10^6 CFU USA300, implant model, topical LPS or fMLP vs vancomycin 40 mg/kg i.p., 24 h, FIG. 2C
Method: The implant model of infection in C57B mice was used for 10^6 PA103 (FIG. 2A) or 10^6 USA300 MRSA (FIG. 2C). The wound model of infection was used for 10^6 PA103 in C57BL mice (FIG. 2B) or diabetic db/db mice (FIG. 2D). Infection was carried out at the time of surgery by adding bacteria directly to the surgical sites. Immunomodulators, namely, LPS (10 ng or 100 ng), fMLP (10 ng or 100 ng), CCL3 (1 μg) were added topically at the surgical sites at the time of surgery & infection. GM-CSF (10 μg/kg), tobramycin (Tob at 3.5 mg/kg), and vancomycin (40 mg/kg) were added systemically by i.p. injection 1 h before surgical implantation and infection. Infection levels were determined 24 h following infection (N>4 animals/group; NS=not significant, * p<0.01, ** p<0.001, ***p<0.0001 One-way ANOVA).
(15A) C57BL/6 mice received 40 mg/kg prophylaxis (Sys) vancomycin (Vanc) or 3.5 mg/kg tobramycin (Tobra) by i.p. injection. (15A) 1 h after antibiotic administration, 106 CFU of USA300 was added to implant after insertion into facia (Implant Model). (15B) 1 h after antibiotic administration, 10^6CFU of USA300 or 106CFU PA103 (Pa) were added full-thickness wounds in of C57BL/6 (Wound Model). Infection levels at implant surgical site (Tissue & Implant) or a distant site (Spleen), or wound tissues were assessed 24 h following infection. (N>4 animals/group, * p<0.01, ***p<0.0001, One-way ANOVA).
We assessed these immunomodulators for their ability to control wound and/or implant SS's in normal (C57BL/6) or diabetic (db/db) mice. We acknowledge that diabetic individuals are not as immunocompromised as other immunocompromised patient groups. […] All immunomodulators were added locally at the surgical sites at the time of infection, except GM-CSF (10 μg/kg) which was administered systemically by i.p. injection 1 h prior to surgery per its FDA-approved route of delivery. […] CCL3 and GM-CSF are also tested using the implant model of infection. Here, we tested CCL3 and GM-CSF in the wound model of infection in C57B mice.
(§1) Implant surgery and wound surgery and surgical site infection are performed according to the following method. On the day of surgery, all mice are anesthetized by an intraperitoneal injection of a ketamine/xylazine mixture (90 mg/kg ketamine+5 mg/kg xylazine for mice). The back of the animals is shaved using an electric shave and scrubbed with alcohol swabs 3 times, a topical antiseptic solution (Hibiclens; chlorhexidine gluconate) is applied to the skin. The surgical procedures are performed with sterile instruments, sterile surgical gloves, and aseptic techniques as follows. For wound surgical procedure, a sterile biopsy punch (5-7 mm diameter) is used to punch through the full thickness of the back skin below the shoulder blades. […]

S. aureus = S. aureus surgical site infection, implant model; assay type: in vivo; settings: S. aureus 10^6 CFU, titers after 1 day, compared to PBS, FIGS. 5A and 5B
Source text: FIGS. 5A and 5B illustrate that PAMPs are effective in controlling S. aureus surgical site infection as prophylactic antibiotic standard therapy. S. aureus (10^6 CFU). S. aureus titers after 1 day. Significance determined as compared to PBS *<0.05, **p<0.01, ***p<0.001, ****p<0.0001.
We next examined the impact of CCL3 topical treatment on leukocyte migration by H&E staining, and on leukocyte activation by myeloperoxidase (MPO) measurements by ELISA. (MPO is primarily used as a marker for neutrophil activation but it can also be expressed to lesser extent in macrophages).
as §1, with “blades. Four 5-7 mm skin wounds are made on the back of each mouse.” for “blades.”

| Molecule | controlling USA300 MRSA infection, compared with prophylaxis vancomycin (USA300 MRSA) | infection control in the implant model against S. aureus (S. aureus) |
| --- | --- | --- |
| CSCC[C@H](NC=O)C(=O)N[C@@H](CC(C)C)C(=O)N[C@@H](Cc1ccccc1)C(=O)O [fMLP, N-Formylmethionyl-leucyl-phenylalanine] | as effective (if not more) | improved |
| lipopolysaccharide [LPS] | as effective (if not more) | improved |
